Results published in article PMC2857964 (Bioorganic & medicinal chemistry letters, 2010).

Target: hMC4R (Homo sapiens, UniProt P32245)
Test: Saturation binding of Eu-labeled probe to Hek293 cells overexpressing hMC4R
Settings: Kd of labeled ligand compared with parental ligand MSH(4)

Chain of hMC4R (P32245 whole entry): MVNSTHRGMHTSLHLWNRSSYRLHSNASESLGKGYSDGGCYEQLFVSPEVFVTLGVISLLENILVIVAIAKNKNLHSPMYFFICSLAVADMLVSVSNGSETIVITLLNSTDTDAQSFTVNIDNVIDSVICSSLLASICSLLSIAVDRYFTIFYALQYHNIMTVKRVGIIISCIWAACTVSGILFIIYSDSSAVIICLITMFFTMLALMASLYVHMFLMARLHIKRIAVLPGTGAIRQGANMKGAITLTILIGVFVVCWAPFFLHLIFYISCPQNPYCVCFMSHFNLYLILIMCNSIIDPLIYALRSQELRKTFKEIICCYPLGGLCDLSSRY

- Affinity for hMC4R, fold lower than the parental ligand: approximately 10 fold
Compound: N=C(N)NCCC[C@H](NC(=O)[C@@H](Cc1ccccc1)NC(=O)[C@H](Cc1c[nH]cn1)NC(=O)COCC(=O)NCCCOCCOCCOCCCNC(=O)CN(CCN(CCN(CC(=O)O)CC(=O)O)CC(=O)O)CC(=O)O)C(=O)N[C@@H](Cc1c[nH]c2ccccc12)C(N)=O [compound 1, Eu-DTPA-PEGO-His-DPhe-Arg-Trp-NH2]
